Experimental data published in PubChem BioAssay AID2060626 (Molecular Pharmacology Branch, DTP, NCI, 2025).

Test system: 168753-222-R-J1-PDC complex spheroid viability
Assay: Anticancer human tumor 168753-222-R-J1-PDC patient-derived bladder carcinoma cell line growth inhibition [CLK]
Settings: for IC50: curve of first compound; for viability, T/C: stronger effect = lower value
Procedure, shortened: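 Patient-derived tumor cells grown as complex spheroids with HUVEC endothelial cells and mesenchymal stem cells, treated with drug combinations. Concentrations descend in half-log steps from near clinical Cmax, or from 10 microM if Cmax unknown.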
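Further: viability measured after seven days of drug exposure.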
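Wherever viability, T/C is given: luminescence signal used as surrogate for viable cell amount; 100% = DMSO vehicle control wells.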

`NC(=O)C(=Cn1cnc(-c2cc(C(F)(F)F)cc(C(F)(F)F)c2)n1)c1cncnc1` + CN1CCN(c2cc(C(=O)Nc3cc4cc(-c5cnn(C)c5)ccc4cn3)ccn2)CC1 was tested, and the IC50 (second compound 0.0316 µM) was 56.2 nM, the IC50 (second compound 0.1 µM) was 13.6 nM and the IC50 (second compound 0.316 µM) was less than 9.49 nM. It also gave an IC50 (second compound 1 µM) of less than 9.49 nM, an IC50 (second compound 3.16 µM) of less than 9.49 nM and an IC50 (second compound 10 µM) of less than 9.49 nM. The viability, T/C (second compound 0.0316 µM, first compound 0.00949 µM) was 75.6%, the viability, T/C (second compound 0.0316 µM, first compound 0.03 µM) was 72.3% and the viability, T/C (second compound 0.0316 µM, first compound 0.0949 µM) was 31.5%. The viability, T/C (second compound 0.0316 µM, first compound 0.3 µM) was 22.6%, the viability, T/C (second compound 0.0316 µM, first compound 0.949 µM) was 15% and the viability, T/C (second compound 0.0316 µM, first compound 3 µM) was 12.9%. For the same molecule, the viability, T/C (second compound 0.1 µM, first compound 0.00949 µM) was 61.4%, the viability, T/C (second compound 0.1 µM, first compound 0.03 µM) was 25.2% and the viability, T/C (second compound 0.1 µM, first compound 0.0949 µM) was 10.8%. For the same molecule, the viability, T/C (second compound 0.1 µM, first compound 0.3 µM) was 10.9%, the viability, T/C (second compound 0.1 µM, first compound 0.949 µM) was 5.67% and the viability, T/C (second compound 0.1 µM, first compound 3 µM) was 3.14%. It also gave a viability, T/C (second compound 0.316 µM, first compound 0.00949 µM) of 6.93%, a viability, T/C (second compound 0.316 µM, first compound 0.03 µM) of 4.81% and a viability, T/C (second compound 0.316 µM, first compound 0.0949 µM) of 0.76%. It also gave a viability, T/C (second compound 0.316 µM, first compound 0.3 µM) of 0.08%, a viability, T/C (second compound 0.316 µM, first compound 0.949 µM) of 0.11% and a viability, T/C (second compound 0.316 µM, first compound 3 µM) of 0.75%. It also gave a viability, T/C (second compound 1 µM, first compound 0.00949 µM) of 0.09%, a viability, T/C (second compound 1 µM, first compound 0.03 µM) of 0.15% and a viability, T/C (second compound 1 µM, first compound 0.0949 µM) of 0.1%. The viability, T/C (second compound 1 µM, first compound 0.3 µM) was 0.05%, the viability, T/C (second compound 1 µM, first compound 0.949 µM) was 0.06% and the viability, T/C (second compound 1 µM, first compound 3 µM) was 0.72%. It also gave a viability, T/C (second compound 3.16 µM, first compound 0.00949 µM) of 0.06%, a viability, T/C (second compound 3.16 µM, first compound 0.03 µM) of 0.22% and a viability, T/C (second compound 3.16 µM, first compound 0.0949 µM) of 0.75%. It also gave a viability, T/C (second compound 3.16 µM, first compound 0.3 µM) of 0.08%, a viability, T/C (second compound 3.16 µM, first compound 0.949 µM) of 0.69% and a viability, T/C (second compound 3.16 µM, first compound 3 µM) of 0.12%. For the same molecule, the viability, T/C (second compound 10 µM, first compound 0.00949 µM) was 0.87%, the viability, T/C (second compound 10 µM, first compound 0.03 µM) was 0.14% and the viability, T/C (second compound 10 µM, first compound 0.0949 µM) was 0.3%. For the same molecule, the viability, T/C (second compound 10 µM, first compound 0.3 µM) was 0.13%, the viability, T/C (second compound 10 µM, first compound 0.949 µM) was 0.22% and the viability, T/C (second compound 10 µM, first compound 3 µM) was 0.56%.

In the case of `Nc1ccccc1NC(=O)c1ccc(CNC(=O)OCc2cccnc2)cc1` + CN1CCN(c2cc(C(=O)Nc3cc4cc(-c5cnn(C)c5)ccc4cn3)ccn2)CC1, the IC50 (second compound 0.0316 µM) is reported as 554 nM, the IC50 (second compound 0.1 µM) is reported as less than 31.6 nM and the IC50 (second compound 0.316 µM) is reported as less than 31.6 nM. The IC50 (second compound 1 µM) was less than 31.6 nM, the IC50 (second compound 3.16 µM) was less than 31.6 nM and the IC50 (second compound 10 µM) was less than 31.6 nM. For the same molecule, the viability, T/C (second compound 0.0316 µM, first compound 0.0316 µM) was 96.5%, the viability, T/C (second compound 0.0316 µM, first compound 0.1 µM) was 58.7% and the viability, T/C (second compound 0.0316 µM, first compound 0.316 µM) was 54.6%. The viability, T/C (second compound 0.0316 µM, first compound 1 µM) was 54%, the viability, T/C (second compound 0.0316 µM, first compound 3.16 µM) was 24.3% and the viability, T/C (second compound 0.0316 µM, first compound 10 µM) was 7.33%. It also gave a viability, T/C (second compound 0.1 µM, first compound 0.0316 µM) of 50%, a viability, T/C (second compound 0.1 µM, first compound 0.1 µM) of 41.3% and a viability, T/C (second compound 0.1 µM, first compound 0.316 µM) of 38.2%. The viability, T/C (second compound 0.1 µM, first compound 1 µM) was 43.9%, the viability, T/C (second compound 0.1 µM, first compound 3.16 µM) was 22.6% and the viability, T/C (second compound 0.1 µM, first compound 10 µM) was 0.13%. The viability, T/C (second compound 0.316 µM, first compound 0.0316 µM) was 9.09%, the viability, T/C (second compound 0.316 µM, first compound 0.1 µM) was 8.55% and the viability, T/C (second compound 0.316 µM, first compound 0.316 µM) was 7.31%. The viability, T/C (second compound 0.316 µM, first compound 1 µM) was 7.09%, the viability, T/C (second compound 0.316 µM, first compound 3.16 µM) was 0.22% and the viability, T/C (second compound 0.316 µM, first compound 10 µM) was 0.07%. It also gave a viability, T/C (second compound 1 µM, first compound 0.0316 µM) of 0.13%, a viability, T/C (second compound 1 µM, first compound 0.1 µM) of 0.23% and a viability, T/C (second compound 1 µM, first compound 0.316 µM) of 0.08%. For the same molecule, the viability, T/C (second compound 1 µM, first compound 1 µM) was 0.05%, the viability, T/C (second compound 1 µM, first compound 3.16 µM) was 0.16% and the viability, T/C (second compound 1 µM, first compound 10 µM) was 0.89%. It also gave a viability, T/C (second compound 3.16 µM, first compound 0.0316 µM) of 0.79%, a viability, T/C (second compound 3.16 µM, first compound 0.1 µM) of 0.08% and a viability, T/C (second compound 3.16 µM, first compound 0.316 µM) of 0.09%. For the same molecule, the viability, T/C (second compound 3.16 µM, first compound 1 µM) was 0.06%, the viability, T/C (second compound 3.16 µM, first compound 3.16 µM) was 0.71% and the viability, T/C (second compound 3.16 µM, first compound 10 µM) was 0.95%. For the same molecule, the viability, T/C (second compound 10 µM, first compound 0.0316 µM) was 0.06%, the viability, T/C (second compound 10 µM, first compound 0.1 µM) was 0.23% and the viability, T/C (second compound 10 µM, first compound 0.316 µM) was 0.32%. It also gave a viability, T/C (second compound 10 µM, first compound 1 µM) of 0.1%, a viability, T/C (second compound 10 µM, first compound 3.16 µM) of 0.24% and a viability, T/C (second compound 10 µM, first compound 10 µM) of 1.08%.
